Data reported in ChEMBL document CHEMBL3509421, “FDA drug approval package for diclofenac acid (NDA 22-202 CP, Ref ID: 3374276)”.

Columns and labels:
[1] = Geometric mean for AUC (0-infinity) of diclofenac following single oral dosing of 18 mg Zorvolex capsule in healthy human; assay type: ADME, organism-based; set-up: time infinity, dietary status Fasting, dose 18 mg, dosed compound id 2.46815e+06, dosed compound name Diclofenac, gender Mixed, regimen Single, route oral; conditions: both, plasma, read-out: AUC (0-infinity)
[2] = Mean Cmax value of diclofenac following single oral dosing of 50 mg Cataflam tablet in healthy human; assay type: ADME, organism-based; set-up: dietary status Fed, dose 50 mg, dosed compound id 2.46815e+06, dosed compound name Diclofenac potassium, gender Mixed, regimen Single, route oral; conditions: both, plasma
[3] = Mean apparent terminal elimination rate constant value of diclofenac following single oral dosing of 35 mg Zorvolex capsule in healthy human; assay type: ADME, organism-based, Plasma; set-up: dietary status Fasting, dose 35 mg, dosed compound id 2.46815e+06, dosed compound name Diclofenac, gender Mixed, regimen Single, route oral; conditions: in vivo
[4] = Geometric mean for Cmax of diclofenac following single oral dosing of 50 mg Cataflam tablet in healthy human; assay type: ADME, organism-based; set-up: dietary status Fasting, dose 50 mg, dosed compound id 2.46815e+06, dosed compound name Diclofenac potassium, gender Mixed, regimen Single, route oral; conditions: both, plasma
[5] = Mean Cmax of diclofenac following single oral dosing of 50 mg Cataflam in healthy human; assay type: ADME, organism-based; set-up: dietary status Fasting, dose 50 mg, dosed compound id 2.46815e+06, dosed compound name Diclofenac potassium, gender Mixed, regimen Single, route oral, study doses 50 mg; conditions: both, plasma
[6] = Mean AUC(0-t) of diclofenac following single oral dosing of 50 mg diclofenac potassium soft gelatin capsule in healthy human; assay type: ADME, organism-based; set-up: dietary status Fasting, dose 50 mg, dosed compound id 2.46815e+06, dosed compound name Diclofenac potassium, gender Mixed, regimen Single, route oral, study doses 25/50 mg; conditions: both, plasma
[7] = Maximum tmax of diclofenac following single oral dosing of 35 mg Zorvolex capsule in healthy human; assay type: ADME, organism-based, Plasma; set-up: dietary status Fasting, dose 35 mg, dosed compound id 2.46815e+06, dosed compound name Diclofenac, gender Mixed, regimen Single, route oral; conditions: in vivo
[8] = Maximum tmax of diclofenac following single oral dosing of 50 mg Cataflam tablet in healthy human; assay type: ADME, organism-based, Plasma; set-up: dietary status Fed, dose 50 mg, dosed compound id 2.46815e+06, dosed compound name Diclofenac potassium, gender Mixed, regimen Single, route oral; conditions: in vivo
[9] = Mean Kel of diclofenac potassium following oral dosing of Cataflam 50 mf tablet in healthy human; assay type: ADME, organism-based; set-up: dietary status Fed, dose 50 mg, dosed compound id 2.46815e+06, dosed compound name Diclofenac potassium, gender Mixed, regimen Single, route oral, study doses 50 mg; conditions: both, plasma, 50 mg
[10] = (§1) Geometric mean for AUC (0-t) of diclofenac following single oral dosing of 35 mg Zorvolex capsule in healthy human; assay type: ADME, organism-based; set-up: dietary status Fed, dose 35 mg, dosed compound id 2.46815e+06, dosed compound name Diclofenac, gender Mixed, regimen Single, route oral; conditions: both, plasma
[11] = Mean Tmax of diclofenac following single oral dosing of 50 mg Cataflam in healthy human; assay type: ADME, organism-based; set-up: dietary status Fasting, dose 50 mg, dosed compound id 2.46815e+06, dosed compound name Diclofenac potassium, gender Mixed, regimen Single, route oral, study doses 50 mg; conditions: both, plasma
[12] = Geometric mean for AUC (0-infinity) of diclofenac following single oral dosing of 35 mg Zorvolex capsule in healthy human; assay type: ADME, organism-based; set-up: time infinity, dietary status Fed, dose 35 mg, dosed compound id 2.46815e+06, dosed compound name Diclofenac, gender Mixed, regimen Single, route oral; conditions: both, plasma, read-out: AUC (0-infinity)
[13] = (§2) Geometric mean for apparent terminal elimination rate constant of diclofenac following single oral dosing of 50 mg Cataflam tablet in healthy human; assay type: ADME, organism-based, Plasma; set-up: dietary status Fasting, dose 50 mg, dosed compound id 2.46815e+06, dosed compound name Diclofenac potassium, gender Mixed, regimen Single, route oral; conditions: in vivo
[14] = Mean Cmax value of diclofenac following single oral dosing of 18 mg Zorvolex capsule in healthy human; assay type: ADME, organism-based; set-up: dietary status Fasting, dose 18 mg, dosed compound id 2.46815e+06, dosed compound name Diclofenac, gender Mixed, regimen Single, route oral; conditions: both, plasma
[15] = clinical; conditions: both, human, plasma, po, 50 mg
[16] = Minimum tmax of diclofenac following single oral dosing of 35 mg Zorvolex capsule in healthy human; assay type: ADME, organism-based, Plasma; set-up: dietary status Fed, dose 35 mg, dosed compound id 2.46815e+06, dosed compound name Diclofenac, gender Mixed, regimen Single, route oral; conditions: in vivo
[17] = Mean AUC (0-t) value of diclofenac following single oral dosing of 50 mg Cataflam tablet in healthy human; assay type: ADME, organism-based; set-up: dietary status Fasting, dose 50 mg, dosed compound id 2.46815e+06, dosed compound name Diclofenac potassium, gender Mixed, regimen Single, route oral; conditions: both, plasma
[18] = Mean AUC (0-infinity) of diclofenac following single oral dosing of 25 mg diclofenac potassium softgel capsule in healthy human; assay type: ADME, organism-based; set-up: time infinity, dietary status Fasting, dose 25 mg, dosed compound id 2.46815e+06, dosed compound name Diclofenac potassium, gender Mixed, regimen Single, route oral, study doses 25/50 mg; conditions: both, plasma, read-out: AUC (0-infinity)
[19] = Mean AUC(0-t) of diclofenac following single oral dosing of 25 mg diclofenac potassium soft gelatin capsule in healthy human; assay type: ADME, organism-based; set-up: dietary status Fasting, dose 25 mg, dosed compound id 2.46815e+06, dosed compound name Diclofenac potassium, gender Mixed, regimen Single, route oral, study doses 25/50 mg; conditions: both, plasma
[20] = Mean AUC (0-t) of diclofenac following single oral dosing of 25 mg diclofenac potassium softgel capsule in healthy human; assay type: ADME, organism-based; set-up: dietary status Fasting, dose 25 mg, dosed compound id 2.46815e+06, dosed compound name Diclofenac potassium, gender Mixed, regimen Single, route oral, study doses 25/50 mg; conditions: both, plasma
[21] = Median tmax of diclofenac following single oral dosing of 35 mg Zorvolex capsule in healthy human; assay type: ADME, organism-based; set-up: dietary status Fasting, dose 35 mg, dosed compound id 2.46815e+06, dosed compound name Diclofenac, gender Mixed, regimen Single, route oral; conditions: both, plasma, read-out: Median Tmax
[22] = clinical; conditions: both, human, plasma, po, 25 mg
Description: Mean terminal elimination half-life of diclofenac following single oral dosing of 25 mg diclofenac potassium softgel capsule in healthy human

[23] = (§3) Mean Cmax of diclofenac following single oral dosing of 50 mg diclofenac potassium softgel capsule in healthy human; assay type: ADME, organism-based; set-up: dietary status Fed, dose 50 mg, dosed compound id 2.46815e+06, dosed compound name Diclofenac potassium, gender Mixed, regimen Single, route oral, study doses 25/50 mg; conditions: both, plasma
[24] = as §1; assay type: ADME, organism-based; set-up: dietary status Fasting, dose 35 mg, dosed compound id 2.46815e+06, dosed compound name Diclofenac, gender Mixed, regimen Single, route oral; conditions: both, plasma
[25] = Mean Cmax of diclofenac following single oral dosing of 25 mg diclofenac potassium softgel capsule in healthy human; assay type: ADME, organism-based; set-up: dietary status Fasting, dose 25 mg, dosed compound id 2.46815e+06, dosed compound name Diclofenac potassium, gender Mixed, regimen Single, route oral, study doses 25/50 mg; conditions: both, plasma
[26] = as §2; assay type: ADME, organism-based, Plasma; set-up: dietary status Fed, dose 50 mg, dosed compound id 2.46815e+06, dosed compound name Diclofenac potassium, gender Mixed, regimen Single, route oral; conditions: in vivo
[27] = clinical; conditions: both, human, plasma, po, 50 mg; remark: listed apart in the source
Description: Mean terminal elimination half-life of diclofenac following single oral dosing of 50 mg diclofenac potassium softgel capsule in healthy human

[28] = Geometric mean for AUC (0-t) of diclofenac following single oral dosing of 50 mg Cataflam tablet in healthy human; assay type: ADME, organism-based; set-up: dietary status Fed, dose 50 mg, dosed compound id 2.46815e+06, dosed compound name Diclofenac potassium, gender Mixed, regimen Single, route oral; conditions: both, plasma
[29] = Mean minimum Tmax value of diclofenac potassium following oral dosing of Cataflam 50 mf tablet in healthy human; assay type: ADME, organism-based; set-up: dietary status Fed, dose 50 mg, dosed compound id 2.46815e+06, dosed compound name Diclofenac potassium, gender Mixed, regimen Single, route oral, study doses 50 mg; conditions: both, plasma, 50 mg, read-out: Minimum Tmax
[30] = Mean median Tmax value of diclofenac potassium following oral dosing of Cataflam 50 mf tablet in healthy human; assay type: ADME, organism-based; set-up: dietary status Fasting, dose 50 mg, dosed compound id 2.46815e+06, dosed compound name Diclofenac potassium, gender Mixed, regimen Single, route oral, study doses 50 mg; conditions: both, plasma, 50 mg, read-out: Median Tmax
[31] = as §3; assay type: ADME, organism-based; set-up: dietary status Fasting, dose 50 mg, dosed compound id 2.46815e+06, dosed compound name Diclofenac potassium, gender Mixed, regimen Single, route oral, study doses 25/50 mg; conditions: both, plasma
[32] = Mean Cmax of diclofenac potassium following oral dosing of Cataflam 50 mf tablet in healthy human; assay type: ADME, organism-based; set-up: dietary status Fasting, dose 50 mg, dosed compound id 2.46815e+06, dosed compound name Diclofenac potassium, gender Mixed, regimen Single, route oral, study doses 50 mg; conditions: both, plasma, 50 mg

## O=C(O)Cc1ccccc1Nc1c(Cl)cccc1Cl [DICLOFENAC]
[1]
  AUC(0-inf): 487 ng·h/mL
[2]
  Cmax: 713 ng/mL
[3]
  lambda-z: 0.349 h⁻¹
[4]
  Cmax: 1090 ng/mL
[5]
  Cmax: 1170 ng/mL
[6]
  AUC(0-t): 1200 ng·h/mL
[7]
  Maximum Tmax: 4 h
[8]
  Maximum Tmax: 4.53 h
[9]
  k el: 0.000136 s⁻¹
[10]
  AUC(0-t): 837 ng·h/mL
[11]
  Tmax: 0.93 h
[12]
  AUC(0-inf): 852 ng·h/mL
[13]
  lambda-z: 0.318 h⁻¹
[14]
  Cmax: 496 ng/mL
[15]
  half-life: 2.27 h
[16]
  Minimum Tmax: 0.5 h
[17]
  AUC(0-t): 1320 ng·h/mL
[18]
  AUC(0-inf): 706 ng·h/mL
[19]
  AUC(0-t): 579 ng·h/mL
[20]
  AUC(0-t): 691 ng·h/mL
[21]
  Tmax: 1 h
[22]
  half-life: 1.11 h
[23]
  Cmax: 1150 ng/mL
[24]
  AUC(0-t): 980 ng·h/mL
[25]
  Cmax: 1160 ng/mL
[26]
  lambda-z: 0.318 h⁻¹
[27]
  half-life: 1.1 h
[28]
  AUC(0-t): 1150 ng·h/mL
[29]
  Tmax: 0.33 h
[30]
  Tmax: 0.5 h
[31]
  Cmax: 2360 ng/mL
[32]
  Cmax: 1160 ng/mL
